Measurements taken from US5707987A, “Carbapenem derivatives” (Banyu Pharmaceutical Co., Ltd., priority 1994, dated 1998).
In brackets after ≈: the same amount, converted by molar mass. Like-named read-outs stand apart in the source and are kept apart here.

What was measured:
[1] = system: S. aureus pMS520/Smith; experiment: In vitro antibacterial activity, agar plate dilution method (MIC); type: cell-based; settings: Staphylococcus aureus, 16 h, read-out: Minimum Inhibitory Concentration (MIC)
Description: (§1) One platinum loopful of each test microorganism incubated overnight in Mueller Hinton broth, was inoculated to Mueller Hinton agar (inoculum size: 10^6 CFU/ml). Such culture media contained antibacterial agents in various concentrations. […] The minimum inhibitory concentrations of the compounds of the present invention were compared with imipenem.

[2] = system: S. aureus BB5939; experiment: as above; type: cell-based; settings: Staphylococcus aureus, read-out: Minimum Inhibitory Concentration (MIC)
Description: as §1

[3] = system: DHP-I; type: in vitro ADME; settings: ratio to imipenem (=1.0); the smaller the value, the higher the stability
From the text: Further, the DHP-I susceptibility was quantitatively analyzed by the method by Kropp et al., Antimicrob. Agents Chemother., vol. 22, pp. 62-70 (1982), whereby the smaller the numerical value representing the ratio to imipenem (=1.0), the higher the stability.
The DHP-1 susceptibility of the compounds of the present invention were compared with imipenem.

[4] = system: highly methicillin-resistant Staphylococcus aureus resistant to imipenem and imipenem-resistant Pseudomonas aeruginosa; settings: background statement; cited from earlier work
[5] = system: kidney; settings: background statement; cited from earlier work
[6] = system: β-lactamase; settings: background statement; cited from earlier work
[7] = cited from earlier work
[8] = system: DHP-I; settings: background statement; cited from earlier work
[9] = system: gram positive bacteria and gram negative bacteria; settings: background statement; cited from earlier work
[10] = background statement; cited from earlier work
[11] = system: renal dehydropeptidase I (DHP-I); settings: in vivo; cited from earlier work
[12] = S. aureus BB5939 (β-lactamase-producing bacterium per footnote), inoculum 10^6 CFU/ml, Mueller Hinton agar, 37° C., 16 hours

SMILES	MIC [1]	MIC [2, 12]	DHP-I susceptibility [3]	further results
C[C@@H](O)[C@H]1C(=O)N2C(C(=O)O)=C(S[C@@H]3CN[C@H](COc4ccc(CN)cc4)C3)[C@H](C)[C@H]12.Cl [Example 127, (1R,5S,6S)-2-[(3S,5S)-5-[4-(Aminomethyl)phenoxymethyl]-pyrrolidin-3-ylthio]-6-[(R)-1-hydroxyethyl]-1-methyl-1-carbapen-2-em-3-carboxylic acid monohydrochloride]	3.13 µg/mL	0.78 µg/mL	0.15	
C=CCN1C[C@@H](SC2=C(C(=O)O)N3C(=O)[C@H]([C@@H](C)O)[C@H]3[C@H]2C)C[C@H]1Cc1cccc2ccccc12 [Example 137, (1R,5S,6S)-2-[(3S,5R)-N-Allyl-5-(1-naphthylmethyl)pyrrolidin-3-ylthio]-6-[(R)-1-hydroxyethyl]-1-methyl-1-carbapen-2-em-3-carboxylic acid]			< 0.05	
C[C@@H](O)[C@H]1C(=O)N2C(C(=O)O)=C(S[C@@H]3CN[C@H](C(O)c4ccc(-c5ccc(CN)cc5)cc4)C3)[C@H](C)[C@H]12 (single isomer, unassigned; diastereomer i) [Example 140]	1.56 µg/mL (≈ 2.98 µM)	0.78 µg/mL (≈ 1.49 µM)	< 0.05	
C[C@@H](O)[C@H]1C(=O)N2C(C(=O)[O-])=C(S[C@@H]3CN[C@H](CSc4ccccc4)C3)[C@H](C)[C@H]12.[Na+]	1.56 µg/mL		0.15	MIC ([2]; BB5939, 16 h): 0.39 µg/mL
C[C@@H](O)[C@H]1C(=O)N2C(C(=O)O)=C(S[C@@H]3CN[C@H](COc4ccccc4)C3)[C@H](C)[C@H]12 [Example 128, (1R,5S,6S)-6-[(R)-1-Hydroxyethyl]-1-methyl-2-[(3S,5S)-5-(phenoxymethyl)pyrrolidin-3-ylthio]-1-carbapen-2-em-3-carboxylic acid]			0.16	
C[C@@H](O)[C@H]1C(=O)N2C(C(=O)O)=C(SCCN=CN)C[C@H]12 [Imipenem, (5R,6S)-3-[2-(formimidoylamino)ethylthie]-6-[(R)-1-hydroxyethyl]-7-oxo-1-azabicyclo[3.2.0]hept-2-en-2-carboxylic acid monohydrate]	> 25 µg/mL		1.0	treating effects against resistant bacteria [4]: does not show adequate treating effects against these resistant bacteria; toxicity against the kidney [5]: presents toxicity against the kidney; MIC ([2]; BB5939, 16 h): 6.25 µg/mL; β-lactamase resistance [6]: β-lactamase resistance; stability in the solid form or in an aqueous solution ([7]; vs thienamycin): remarkably improved over thienamycin; decomposition by DHP-I in the human kidney [8]: likely to be decomposed by DHP-I in the human kidney; antibacterial activities [9]: antibacterial activities of an equal or higher level than thienamycin
C[C@@H](O)[C@H]1C(=O)N2C(C(=O)O)=C(S[C@@H]3CN[C@H](Cc4ccc(CN)cc4)C3)[C@H](C)[C@H]12 [Example 131]	3.13 µg/mL (≈ 7.25 µM)	0.78 µg/mL (≈ 1.81 µM)	< 0.05	
CN[C@H](CC(C)C)C(=O)N[C@H]1C(=O)N[C@@H](CC(N)=O)C(=O)N[C@H]2C(=O)N[C@H]3C(=O)N[C@H](C(=O)N[C@H](C(=O)O)c4cc(O)cc(O)c4-c4cc3ccc4O)[C@H](O)c3ccc(c(Cl)c3)Oc3cc2cc(c3O[C@@H]2O[C@H](CO)[C@@H](O)[C@H](O)[C@H]2O[C@H]2C[C@](C)(N)[C@H](O)[C@H](C)O2)Oc2ccc(cc2Cl)[C@H]1O [vancomycin]				toxicity against the kidney [5]: strong toxicity
C[C@@H](O)[C@H]1C(=O)N2C(C(=O)O)=C(S[C@@H]3CN[C@H](CNc4ccc(CN)cc4)C3)[C@H](C)[C@H]12.Cl [Example 121, (1R,5S,6S)-2-[(3S,5S)-5-[4-(Aminomethyl)anilinomethyl]-pyrrolidin-3-ylthio]-6-[(R)-1-hydroxyethyl]-1-methyl-1-carbapen-2-em-3-carboxylic acid monohydrochloride]	1.56 µg/mL	0.39 µg/mL	0.15	
C[C@@H](O)[C@H]1C(=O)N2C(C(=O)O)=C(SCCN)C[C@H]12 [thienamycin]				recovery rate in the urine [10]: low; decomposition by renal dehydropeptidase I [11]: likely to be decomposed; chemical stability ([7]; background statement): chemically unstable; decomposition by DHP-I in the human kidney [8]: likely to be decomposed by DHP-I in the human kidney; antibacterial activities [9]: excellent antibacterial spectrum and strong antibacterial activities
